# Columns and labels:
# [1] = system: CD19-specific CAR-T cells co-expressing RTS-mbIL-15; assay: Survival of CD19 CAR/RTS-mbIL-15 T cells upon withdrawal of IL-2 and IL-21; type: cell-based, human; details: veledimex 50 nM, ex vivo culture, % live cells by flow
# Method: Multiple Sleeping Beauty transposon DNA plasmids encoding for RTS-membrane bound IL-15 (RTS-mbIL-15), CD19-specific chimeric antigen receptor (CD19 CAR) (Design 9, FIG. 2) were transfected into peripheral blood mononuclear cells (PBMC) along with plasmid DNA encoding for Sleeping Beauty transposase SB11 via nucleofection (FIG. 1). On day 0, 20 million PBMC were resuspended in 100 μL of Amaxa Human T cell Nucleofector solution (Cat. no. VPA-1002; Lonza, Basel, Switzerland) mixed with a total of 15 μg of transposons and 5 μg of transposase and nucleofected into cells. The following day (day1) cells were counted, and CAR expression was measured using flow cytometry. Cells were stimulated with either γ-irradiated (100 Gy) or mitomycin C treated K562 based AaPCs expressing CD19 on their surface at a 1:1 ratio. Cultures were supplemented with IL-21 (30 ng/ml) only for the first round of stimulation and subsequently with recombinant human IL-2 (50 IU/ml) and IL-21 (30 ng/ml) (Pepro Tech) for remaining stimulations. […] Cultures were also closely monitored for the outgrowth of NK cells (defined as CD3negCD56+ population) and were removed from the CAR T cell cultures when the percentage exceeded 10% of total cell populations using magnetic beads for CD56 (Stem Cell Technologies and/or Miltenyi Biotec), according to the manufacturer's instructions. […]
# [2] = system: RTS-mbIL-15 in CD19 CAR T cells; assay: Western blot of mbIL-15 expression; type: cell-based, human; details: CD19 CAR+RTS-mbIL-15 cells, veledimex 2-3 days after four rounds of stimulation
# Method: PBMC were nucleofected with plasmids of Sleeping Beauty system to express CD19-specific CAR under constitutive promoter (CD19 CAR alone), or CD19-specific CAR and mbIL-15 both under constitutive promoters (CD19 CAR+constitutive-mbIL-15) or CD19-specific CAR under constitutive promoter and RTS-mbIL-15 (CD19 CAR+RTS-mbIL-15). Nucleofected cells were cultured in presence of AaPC as described in Example 1.
# After four rounds of stimulations, cells were cultured in absence (CD19 CAR alone, CD19 CAR+constitutive-mbIL-15 and CD19 CAR+RTS-mbIL-15) or presence (CD19 CAR+RTS-mbIL-15) of veledimex for 2-3 days. Cell lysates were prepared for western blot analysis. Approximately 10 μg lysate/lane of NuPAGE 10% Bis-Tris gel was loaded. Proteins were transferred from gel to a polyvinylidene fluoride (PVDF) membranes using the iBlot® (Life Technologies) semi-dry transfer apparatus. Membrane was blocked using a 5% (w/v) powdered milk solution in a PBS+Tween-20 (PBST; 1×PBS+0.05% Tween-20) solution stained with goat anti-human IL-15 (R&D Systems) primary antibody and rabbit anti-goat IgG HRP (KPL Laboratories) secondary antibody. […]
# Image of the western blot were captured on the FluorChem™ E Imager (ProteinSimple, San Jose, Calif.) system using the Digital Darkroom software and AlphaView® software (ProteinSimple). […] In CD19 CAR+constitutive-mbIL-15 positive control, expression of mbIL-15 was detected.
# [3] = system: RTS-IL-12 in EGFRvIII-CAR-T cells; assay: IL-12 induction in EGFRvIII-CAR/RTS-IL-12 T cells, ELISA of culture supernatant; type: cell-based
# Excerpt: Sleeping Beauty transposons were designed as depicted in FIG. 22 to stably express EGFRvIII-specific CAR, a cell tag and RTS-IL-12. Transposon plasmids were electroporated in several donor T cells as previously described. EGFRvIII-CAR-T cells were selectively expanded ex vivo by successive rounds of stimulations every 7-10 days for up to 4 cycles with either γ-irradiated or mitomycin C treated AaPC that served as “feeder cells” at 1:1 ratio in media supplemented with IL-2 and IL-21. The AaPC cells used were K562-AaPC expressing EGFRvIII antigen. FIG. 26 depicts CAR expression in T cells from multiple donors as the CAR+ T cells are selectively expanded ex vivo.
# To assay IL-12 induction in EGFRvIII-CAR-T cells, Pan T-cells at 24 h post nucleofection were treated with DMSO (control) or veledemix in the presence of AaPCs in media containing IL-21. After 48 hours post-nucleofection, culture supernatants were analyzed for IL-12 levels by ELISA.
# Furthermore, the ability of RTS-IL-12/CAR-T cells to produce inducible IL-12 was assessed in presence or absence of antigen specific stimulation. EGFRvIII-CAR/RTS-IL-12 T cells were expanded ex vivo by three successive rounds of stimulation with EGFRvIII^+ AaPCs. […]
# [4] = system: RTS-IL-12 in EGFRvIII-CAR T cells; assay: Veledimex dose-response of IL-12, ELISA; type: cell-based
# Method: EGFRvIII-CAR T cells with or without RTS-IL-12 were expanded ex vi by three successive rounds of stimulation with EGFRvIII^+ AaPCs. T cells were then treated with varying doses of veledimex from 0 nM (DMSO control) to 100 nM. At 48 h post veledimex treatment, culture supernatants were harvested analyzed for IL-12 levels by ELISA. EGFRvIII-CAR expression in all groups was confirmed with flow cytometry and was stable with increasing doses of veledimex (data not shown) as expected with CAR expression under control of a constitutive promoter.
smiles,measurement,setting,value
"CCC[C@@H](N(NC(=O)c1cccc(OC)c1CC)C(=O)c1cc(C)cc(C)c1)C(C)(C)C [veledimex, N-[(1R)-1-(1,1-dimethylethyl)butyl]-N′-(2-ethyl-3-methoxybenzoyl)-3,5-dimethylbenzohydrazide]",survival of CAR-T cells in absence of cytokines (IL-2 and IL-21),[1],improved survival of CAR-T cells
same,mbIL-15 expression by western blot,[2],strong expression of mbIL-15
same,veledimex induced IL-12 with versus without EGFRvIII^+ AaPCs,"[3]; 100 nM veledimex, 48 hours, after three rounds of stimulation",greatly enhanced in presence of EGFRvIII antigen specific stimulation
same,IL-12 expression in culture supernatant,"[3]; T cells co-expressing CAR and RTS-IL-12, treated 24 h post nucleofection with AaPCs and IL-21",induced IL-12 expression
same,IL-12 production versus veledimex dose,"[4]; 0 nM to 100 nM, 48 h post treatment",dose dependent
same,EGFRvIII-CAR expression with increasing doses of veledimex,"[4]; flow cytometry, data not shown",stable

# Reference: patent US11692194B2, “Modulating expression of polypeptides via new gene switch expression systems” (Precigen, Inc., priority 2017, dated 2023)
